A value given as a limit tells only on which side of the number the result lay.

One test has as its target T1, Human Recombinant Matriptase 2 (Homo sapiens, UniProt Q8IU80).
T1 construct: made in house
T1 sequence (Q8IU80 1-811): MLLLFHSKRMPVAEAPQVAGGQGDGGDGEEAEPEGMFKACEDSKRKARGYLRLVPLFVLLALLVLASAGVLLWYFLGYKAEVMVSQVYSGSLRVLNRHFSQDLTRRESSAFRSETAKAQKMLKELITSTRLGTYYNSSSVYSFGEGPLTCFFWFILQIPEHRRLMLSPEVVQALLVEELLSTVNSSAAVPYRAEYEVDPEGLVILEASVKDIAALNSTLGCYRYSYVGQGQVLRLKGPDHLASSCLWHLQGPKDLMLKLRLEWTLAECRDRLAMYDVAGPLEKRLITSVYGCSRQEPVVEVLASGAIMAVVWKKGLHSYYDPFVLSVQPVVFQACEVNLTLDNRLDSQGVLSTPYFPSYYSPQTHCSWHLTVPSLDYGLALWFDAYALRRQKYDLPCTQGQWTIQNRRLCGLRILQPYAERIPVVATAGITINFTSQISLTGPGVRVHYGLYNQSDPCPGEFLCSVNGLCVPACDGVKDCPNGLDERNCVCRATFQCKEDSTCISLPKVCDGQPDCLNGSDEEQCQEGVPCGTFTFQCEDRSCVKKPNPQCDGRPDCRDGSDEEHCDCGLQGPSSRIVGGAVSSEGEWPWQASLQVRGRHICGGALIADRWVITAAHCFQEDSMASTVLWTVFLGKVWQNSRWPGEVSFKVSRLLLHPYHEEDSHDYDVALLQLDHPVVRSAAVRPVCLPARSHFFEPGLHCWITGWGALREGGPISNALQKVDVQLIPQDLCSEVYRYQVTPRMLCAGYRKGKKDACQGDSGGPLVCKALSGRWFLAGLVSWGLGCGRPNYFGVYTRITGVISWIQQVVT
The experiment in a line: Matriptase 2 inhibition, fluorescence based assay (Method I). It is filed as biochemical. The following applies: Table A; Ki of Matriptase-2; read-out: Mat-2 Ki. The essentials:
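In-house recombinant enzyme (3.5 nM), preincubated 30 min with compound, then Boc-Gln-Ala-Arg-AMC substrate (62 μM) in 50 mM Tris pH 7.5, 150 mM NaCl, 0.01% gelatin, 1% DMSO, 25 °C. Fluorescence (Ex 360/Em 480 nm) read 60 min after substrate; IC50 from variable-slope sigmoidal fit of % inhibition.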
By Ki is commonly meant the equilibrium dissociation constant of an inhibitor or competing ligand from its target. Regarding `NCc1ccc2cc(C(=O)O)n(Cc3cc(NS(=O)(=O)C4(c5ccccc5)CC4)cc4ccccc34)c2n1` [Compound 113, 6-(aminomethyl)-1-{[3-(1-phenylcyclopropane-sulfonamido)naphthalen-1-yl]methyl}-1H-pyr-rolo[2,3-b]pyridine-2-carboxylic acid], the Ki fell in the range of 500 to 3000 nM.
As to `C[C@@H](c1ccccc1)S(=O)(=O)Nc1cc(Cn2c(C(=O)OCC3CCN(C)CC3)cc3ccc(CN)nc32)c2ccccc2c1` (racemic) [Compound 11, (1-methylpiperidin-4-yl)methyl 6-(aminometh-yl)-1-{[3-(1-phenyl-ethanesulfonamido)naph-thalen-1-yl]methyl}-1H-pyrrolo[2,3-b]pyridine-2-carboxylate], the Ki is not above 100 nM.
Still for that read-out and setting: as for `NCc1ccc2cc(C(=O)OCC3CCNCC3)n(Cc3cc(NS(=O)(=O)Cc4ccccc4)cc4ccccc34)c2n1` [Compound 9, (piperidin-4-yl)methyl 6-(aminomethyl)-1-{[3-(phenylmethanesulfon-amido)naphthalen-1-yl]-methyl}-1H-pyrrolo[2,3-b]pyridine-2-carboxylate], the figure is not above 100 nM; as for `CN(C)C(=O)CCCNC(=O)c1cc2ccc(CN)nc2n1Cc1cc(NS(=O)(=O)Cc2ccccc2)cc2ccccc12` [Compound 38, 4-{[6-(aminomethyl)-1-{[3-(phenylmethane-sulfonamido)naphthalen-1-yl]methyl}-1H-pyr-rolo[2,3-b]pyridin-2-yl]-formamido}-N,N-dimethylbutanamide], not above 100 nM.
Same read-out and setting: as for `CC(=O)N(C)CCOC(=O)c1cc2ccc(CN)nc2n1Cc1cc(NS(=O)(=O)Cc2ccccc2)cc2ccccc12` [Compound 141, 2-(N-methylacetamido)-ethyl 6-(aminomethyl)-1-{[3-(phenylmethane-sulfonamido)naphthalen-1-yl]methyl}-1H-pyrrolo-[2,3-b]pyridine-2-car-boxylate], the figure is 100 to 500 nM; as for `NCc1ccc2cc(C(=O)NCCS(N)(=O)=O)n(Cc3cc(NS(=O)(=O)Cc4ccccc4)cc4ccccc34)c2n1` [Compound 78, 6-(aminomethyl)-1-{[3-(phenylmethanesulfon-amido)naphthalen-1-yl]-methyl}-N-(2-sulfamoyl-ethyl)-1H-pyrrolo[2,3-b]pyridine-2-carboxamide], not above 100 nM.
Same read-out and setting: the result for `NCc1ccc2cc(C(=O)OCCN3CCNCC3)n(Cc3cc(NS(=O)(=O)Cc4ccccc4)cc4ccccc34)c2n1` [Compound 33, 2-(piperazin-1-yl)ethyl 6-(aminomethyl)-1-{[3-(phenylmethanesulfon-amido)naphthalen-1-yl]-methyl}-1H-pyrrolo[2,3-b]pyridine-2-carboxylate] reads not above 100 nM; that for `Cn1ccnc1COC(=O)c1cc2ccc(CN)nc2n1Cc1cc(NS(=O)(=O)Cc2ccccc2)cc2ccccc12` [Compound 137, (1-methyl-1H-imidazol-2-yl)methyl 6-(amino-methyl)-1-{[3-(phenyl-methanesulfonamido)-naphthalen-1-yl]methyl}-1H-pyrrolo[2,3-b]pyr-idine-2-carboxylate], not above 100 nM.
`CNC(=O)c1cc2ccc(CN)nc2n1Cc1cc(NS(=O)(=O)Cc2ccccc2)cc2ccccc12` [Compound 66]: the Ki was not above 100 nM.
The same measure, in the same setting: the result for `COCCN1CC[C@H](COC(=O)c2cc3ccc(CN)nc3n2Cc2cc(NS(=O)(=O)Cc3ccsc3)cc3ccccc23)C1` (racemic) [Compound 172, [1-(2-methoxyethyl)-pyrrolidin-3-yl]methyl 6-(aminomethyl)-1-({3-[(thiophen-3-yl)methane-sulfonamido]naphthalen-1-yl}methyl)-1H-pyr-rolo[2,3-b]pyridine-2-carboxylate] reads not above 100 nM.
`CN(c1cc(Cn2c(C(=O)O)cc3ccc(CN)nc32)c2ccccc2c1)S(=O)(=O)Cc1ccccc1` [Compound 109, 6-(aminomethyl)-1-{[3-(N-methylphenylmeth-anesulfonamido)naph-thalen-1-yl]methyl}-1H-pyrrolo[2,3-b]pyridine-2-carboxylic acid]: the Ki lay within 100 to 500 nM.
For the molecule `CC(C)N1CCC(CNC(=O)c2cc3ccc(CN)nc3n2Cc2cc(NS(=O)(=O)Cc3ccccc3)cc3ccccc23)CC1` [Compound 14, 6-(aminomethyl)-1-{[3-(phenylmethanesulfon-amido)naphthalen-1-yl]-methyl}-N-{[1-(propan-2-yl)piperidin-4-yl]-methyl}-1H-pyrrolo-[2,3-b]pyridine-2-car-boxamide], the inhibitory constant (Ki) was not above 100 nM.
Still for that read-out and setting: as for `CN1CC[C@H](CNC(=O)c2cc3ccc(CN)nc3n2Cc2cc(NS(=O)(=O)Cc3ccccc3)cc3ccccc23)CC1=O` (racemic) [Compound 37, rac-6-(aminomethyl)-N-{[(4R)-1-methyl-2-oxo-piperidin-4-yl]methyl}-1-{[3-(phenylmethane-sulfonamido)naphthalen-1-yl]methyl}-1H-pyr-rolo[2,3-b]pyridine-2-carboxamide], the figure is not above 100 nM.

The same test, now with this note: Table A; Ki of Matriptase-2 given as class symbols; read-out: Mat-2 Ki.
Take `C[C@H](c1ccccc1)S(=O)(=O)Nc1cc(Cn2c(C(=O)OCC3CCN(C)CC3)cc3ccc(CN)cc32)c2ccccc2c1` [Compound 378, (1-methylpiperidin-4-yl)-methyl 6-(aminomethyl)-1-({3-[(1R)-1-phenyl-ethane-sulfonamido]-naphthalen-1-yl}methyl)-1H-indole-2-carboxylate]: the Ki was not above 100 nM.
On the same count and under the same terms, the result for `Cc1cccc(C)c1CS(=O)(=O)Nc1cc(Cn2c(C(=O)NCCC3CCN(C)CC3)cc3ccc(CN)cc32)c2ccccc2c1` [Compound 373, 6-(aminomethyl)-1-({3-[(2,6-dimethylphenyl)-methanesulfonamido]-naphthalen-1-yl}methyl)-N-[2-(1-methylpiperidin-4-yl)ethyl]-1H-indole-2-carboxamide] reads not above 100 nM; that for `CC(C)(C)OC(=O)N1CCC(CCS(=O)(=O)Nc2cc(Cn3c(C(=O)O)cc4ccc(CN)nc43)c3ccccc3c2)CC1` [Compound 274, 6-(aminomethyl)-1-{[3-(2-{1-[(tert-butoxy)car-bonyl]piperidin-4-yl}-ethanesulfonamido)naph-thalen-1-yl]methyl}-1H-pyrrolo[2,3-b]pyridine-2-carboxylic acid], 500 to 3000 nM.
As to `CCOC(=O)c1cc2ccc(CN)nc2n1Cc1cc(NS(=O)(=O)Cc2ccsc2)cc2ccccc12` [Compound 291], the Ki lay within 100 to 500 nM.
Still for that read-out and setting: as for `CN1CCC(COC(=O)c2cc3ccc(CN)nc3n2Cc2cc(NS(=O)(=O)CC34CC(F)(C3)C4)cc3ccccc23)CC1` [Compound 248, (1-methylpiperidin-4-yl)-methyl 6-(aminomethyl)-1-{[3-({3-fluorobicyclo-[1.1.1]pentan-1-yl}-methanesulfonamido)-naphthalen-1-yl]methyl}-1H-pyrrolo[2,3-b]pyr-idine-2-carboxylate], the figure is 500 to 3000 nM.
Still for that read-out and setting: the result for `NCc1ccc2cc(C(=O)O)n(Cc3cc(NS(=O)(=O)Cc4ccccc4C(F)(F)F)cc4ccccc34)c2n1` [Compound 225, 6-(aminomethyl)-1-[(3-{[2-(trifluoromethyl)-phenyl]methanesulfon-amido}naphthalen-1-yl)methyl]-1H-pyrrolo-[2,3-b]pyridine-2-car-boxylic acid] reads 100 to 500 nM.
As for `NCc1ccc2cc(C(N)=O)n(Cc3cc(NS(=O)(=O)CC[C@@H]4CCCN4)cc4ccccc34)c2n1` [Compound 213, 6-(aminomethyl)-1-[(3-{2-[(2S)-pyrrolidin-2-yl]ethanesulfonamido}-naphthalen-1-yl)methyl]-1H-pyrrolo[2,3-b]pyr-idine-2-carboxamide], the Ki was not above 100 nM.
Still for that read-out and setting: as for `NCc1ccc2cc(C(=O)O)n(Cc3cc(NS(=O)(=O)[C@H]4CCNC4)cc4ccccc34)c2n1` [Compound 259, 6-(aminomethyl)-1-({3-[(3S)-pyrrolidine-3-sul-fonamido]naphthalen-1-yl}methyl)-1H-pyrrolo-[2,3-b]pyridine-2-car-boxylic acid], the figure is 100 to 500 nM; as for `CN1CCCC(COC(=O)c2cc3ccc(CN)cc3n2Cc2cc(NS(=O)(=O)Cc3ccccc3)cc3ccccc23)C1` (racemic) [Compound 382, (1-methylpiperidin-3-yl)-methyl 6-(aminomethyl)-1-{[3-(phenylmethane-sulfonamido)naphthalen-1-yl]methyl}-1H-indole-2-carboxylate], not above 100 nM; as for `NCc1ccc2cc(C(=O)O)n(Cc3cc(NS(=O)(=O)[C@H]4CCOC4)cc4ccccc34)c2n1` (racemic) [Compound 273, rac-6-(aminomethyl)-1-({3-[(3R)-oxolane-3-sulfonamido]naphthalen-1-yl}methyl)-1H-pyr-rolo[2,3-b]pyridine-2-carboxylic acid], 500 to 3000 nM.

The same test, now with this note: Table B; Human Recombinant Matriptase 2, 3.5 nM enzyme, 62 μM substrate, 30 mins preincubation; read-out: Mean Ki.
With `Cc1cccc(C)c1CS(=O)(=O)Nc1cc2c(c(Cn3c(C(=O)OCc4nccn4C)cc4ccc(CN)nc43)c1)CCCC2` [Compound 2.44], the inhibitory constant (Ki) was 100 to 500 nM.

The values above are taken from US20240400553A1, “AMINE BASED MATRIPTASE 2 INHIBITORS AND USES THEREOF” (Disc Medicine, Inc., priority 2023, published 2024).
